Values joined by “and” are separate entries in the source; they are usually repeats but may differ in a detail not shown here. Equal entries are not always repeated.
What was measured:
[1] = biological target: T1, human recombinant adrenergic α2B receptor (Homo sapiens, UniProt P18089); assay: Radioligand binding, adrenergic α2B ([3H]Rauwolscine); conditions: for Percentage inhibition of ligand binding, Adrenergic α2B (0.03 μM): compound at 0.03 μM; for Percentage inhibition of ligand binding, Adrenergic α2B (0.03 μM) / inhibition at 0.03 µM: [3H]Rauwolscine, repeat datapoints each shown; for inhibition at 0.03 µM: read-out: Percentage inhibition of ligand binding, Adrenergic α2B (0.03 μM), compound at 0.03 μM
T1 construct: expressed in transfected cells; host or cells: CHO-K1
T1 sequence (P18089 1-450): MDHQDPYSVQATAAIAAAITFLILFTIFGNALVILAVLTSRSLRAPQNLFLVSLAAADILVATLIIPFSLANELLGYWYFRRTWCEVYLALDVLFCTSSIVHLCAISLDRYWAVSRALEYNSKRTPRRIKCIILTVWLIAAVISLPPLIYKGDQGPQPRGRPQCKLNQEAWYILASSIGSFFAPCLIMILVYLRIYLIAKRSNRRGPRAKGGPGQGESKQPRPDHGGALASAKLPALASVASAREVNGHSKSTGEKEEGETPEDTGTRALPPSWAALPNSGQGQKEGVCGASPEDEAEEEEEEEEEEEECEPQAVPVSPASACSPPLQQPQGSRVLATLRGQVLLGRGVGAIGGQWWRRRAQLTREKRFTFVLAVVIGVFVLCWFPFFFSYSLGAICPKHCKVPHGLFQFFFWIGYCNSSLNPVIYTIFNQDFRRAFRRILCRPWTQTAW
Summary of the method: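 Assay used CHO-K1-expressed human α2B receptor in Tris-HCl pH 7.4 buffer with MgCl2, EDTA and BSA; 60 min incubation at 25 °C.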

[2] = biological target: T2, rat adrenergic α1B receptor (Rattus norvegicus, UniProt P15823); assay: Radioligand binding, adrenergic α1B ([3H]Prazosin); conditions: [3H]Prazosin, repeat datapoints each shown; for Percentage inhibition of ligand binding, Adrenergic α1B (0.1 μM): compound at 0.1 μM
T2 construct: rat adrenergic α1B receptor obtained from Wistar Rat liver; from tissue; host or cells: Wistar rat liver
T2 sequence (P15823 1-515): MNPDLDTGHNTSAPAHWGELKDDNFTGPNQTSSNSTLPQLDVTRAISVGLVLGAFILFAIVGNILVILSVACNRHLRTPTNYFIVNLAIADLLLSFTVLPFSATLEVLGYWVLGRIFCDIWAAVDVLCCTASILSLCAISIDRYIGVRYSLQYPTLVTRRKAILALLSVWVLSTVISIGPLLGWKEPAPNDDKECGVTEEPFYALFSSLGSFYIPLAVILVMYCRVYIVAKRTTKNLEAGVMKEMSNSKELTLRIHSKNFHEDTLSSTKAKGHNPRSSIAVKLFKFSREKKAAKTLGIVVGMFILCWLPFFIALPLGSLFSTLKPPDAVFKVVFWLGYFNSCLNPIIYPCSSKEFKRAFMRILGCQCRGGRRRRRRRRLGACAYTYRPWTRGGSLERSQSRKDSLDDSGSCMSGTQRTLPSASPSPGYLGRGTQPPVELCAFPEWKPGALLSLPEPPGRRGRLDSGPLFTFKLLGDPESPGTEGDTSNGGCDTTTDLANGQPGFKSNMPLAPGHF
Summary of the method: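 Incubation ran 60 min at 25 °C in Tris-HCl buffer (50 mM, pH 7.4, 0.5 mM EDTA) with Wistar rat liver α1B receptor. 10 μM phentolamine set non-specific binding.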

[3] = biological target: T3, human recombinant adrenergic α2A receptor (Homo sapiens, UniProt P08913); assay: Radioligand binding, adrenergic α2A ([3H]MK-912); conditions: [3H]MK-912, repeat datapoints each shown; for Percentage inhibition of ligand binding, Adrenergic α2A (0.1 μM): compound at 0.1 μM
T3 construct: expressed in transfected cells; host or cells: insect Sf9 cells
T3 sequence (P08913 1-465): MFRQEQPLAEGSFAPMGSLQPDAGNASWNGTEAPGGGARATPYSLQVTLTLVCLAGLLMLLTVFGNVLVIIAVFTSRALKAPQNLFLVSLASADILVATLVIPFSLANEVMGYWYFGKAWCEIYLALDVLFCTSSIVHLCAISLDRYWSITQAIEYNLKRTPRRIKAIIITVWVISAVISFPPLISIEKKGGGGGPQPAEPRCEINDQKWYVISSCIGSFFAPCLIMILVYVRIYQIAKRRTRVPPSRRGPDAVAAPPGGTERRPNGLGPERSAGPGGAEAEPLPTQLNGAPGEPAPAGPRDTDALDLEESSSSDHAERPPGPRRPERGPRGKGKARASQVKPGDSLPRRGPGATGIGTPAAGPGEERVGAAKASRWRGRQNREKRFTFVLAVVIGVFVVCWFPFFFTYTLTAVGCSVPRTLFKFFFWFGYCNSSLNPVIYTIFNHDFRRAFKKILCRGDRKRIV
Summary of the method: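 Sf9-expressed receptor was incubated with compound for 60 min at 25 °C in modified Tris-HCl buffer, pH 7.4. Nonspecific binding was taken as that remaining with 10 μM WB-4101.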

Compound | Percentage inhibition of ligand binding, Adrenergic α2B (0.03 μM) [1] | Percentage inhibition of ligand binding, Adrenergic α1B (0.1 μM) [2] | Percentage inhibition of ligand binding, Adrenergic α2A (0.1 μM) [3] [%] | inhibition at 0.03 µM [1] [%] | Ki ([1]; read-out: Ki α2B) [nM] | inhibition at 0.03 µM ([2]; read-out: Percentage inhibition of ligand binding, Adrenergic α1B (0.03 μM), compound at 0.03 μM) [%] | inhibition at 0.1 µM ([2]; read-out: Percentage inhibition of ligand binding, Adrenergic α1B (0.1 μM), compound at 0.1 μM) [%] | inhibition at 0.1 µM ([3]; read-out: Percentage inhibition of ligand binding, Adrenergic α2A (0.1 μM), compound at 0.1 μM) [%]
Cc1cnc2c(c1)c1c(n2CCc2ccc(C)nc2)CCN2CCCCC12 (single isomer, unassigned) [IV-8b] | 3% | 5% | 22 | – | – | – | – | –
Cc1cnc2c(c1)c1c(n2CCc2cnc(C)nc2)CCN2CCCC12 (single isomer, unassigned) [IV-93a] | – | 7% | 18 | 52 | – | – | – | –
Cc1cnc2c(c1)c1c(n2CCc2cnc(C)nc2)CCN2CCCC12 (single isomer, unassigned) [IV-93b] | 44% | 65% | −1 | – | – | – | – | –
Cc1cnc2c(c1)c1c(n2CC(O)c2ccncc2)CCN2CCCC12 (single isomer, unassigned) [IV-209a, 2-(9-Methyl-1,2,3,4,5,10c-hexahydro-3a,6,7-triaza-cyclopenta[c]fluoren-6-yl)-1-pyridin-4-yl-ethanol] | 72% | 89% | 6 | – | – | – | – | –
Cc1cnc2c(c1)c1c(n2CC(O)c2ccncc2)CCN2CCCC12 (single isomer, unassigned) [IV-209b, 2-(9-Methyl-1,2,3,4,5,10c-hexahydro-3a,6,7-triaza-cyclopenta[c]fluoren-6-yl)-1-pyridin-4-yl-ethanol] | 13% | 11% | 10 | – | – | – | – | –
Cc1cnc2c(c1)c1c(n2CC(O)c2ccncc2)CCN2CCCC12 (single isomer, unassigned) [IV-209c, 2-(9-Methyl-1,2,3,4,5,10c-hexahydro-3a,6,7-triaza-cyclopenta[c]fluoren-6-yl)-1-pyridin-4-yl-ethanol] | 102% | 98% | 59 | – | – | – | – | –
Cc1cnc2c(c1)c1c(n2CC(O)c2ccncc2)CCN2CCCC12 (single isomer, unassigned) [IV-209d, 2-(9-Methyl-1,2,3,4,5,10c-hexahydro-3a,6,7-triaza-cyclopenta[c]fluoren-6-yl)-1-pyridin-4-yl-ethanol] | 79% | 54% | 8 | – | – | – | – | –
CC(O)(Cn1c2c(c3cc(Cl)cnc31)C1CCCN1CC2)c1cccnc1 (single isomer, unassigned) [IV-210a] | 101% and 103% | 70% and 75% | 37 | – | 0.33 | 43 | – | –
CC(O)(Cn1c2c(c3cc(Cl)cnc31)C1CCCN1CC2)c1cccnc1 (single isomer, unassigned) [IV-210b] | 29% | 10% | 8 | – | – | – | – | –
CC(O)(Cn1c2c(c3cc(Cl)cnc31)C1CCCN1CC2)c1cccnc1 (single isomer, unassigned) [IV-210c] | 10% | −4% | 1 | – | – | – | – | –
CC(O)(Cn1c2c(c3cc(Cl)cnc31)C1CCCN1CC2)c1cccnc1 (single isomer, unassigned) [IV-210d] | 87% | 19% | 13 | – | – | – | – | –

The remaining lines, values ahead:

Percentage inhibition of ligand binding, Adrenergic α2B (0.03 μM) [1] | Percentage inhibition of ligand binding, Adrenergic α1B (0.1 μM) [2] | Percentage inhibition of ligand binding, Adrenergic α2A (0.1 μM) [3] [%] | inhibition at 0.03 µM [1] [%] | Ki ([1]; read-out: Ki α2B) [nM] | inhibition at 0.03 µM ([2]; read-out: Percentage inhibition of ligand binding, Adrenergic α1B (0.03 μM), compound at 0.03 μM) [%] | inhibition at 0.1 µM ([2]; read-out: Percentage inhibition of ligand binding, Adrenergic α1B (0.1 μM), compound at 0.1 μM) [%] | inhibition at 0.1 µM ([3]; read-out: Percentage inhibition of ligand binding, Adrenergic α2A (0.1 μM), compound at 0.1 μM) [%] | Compound
7% | 0% | 18 | – | – | – | – | – | Cc1ccc2c(c1)c1c(n2CC(C)(OCC(=O)O)c2cccnc2)CCN(C)C1 (single isomer, unassigned) [V-14a, 2-((1-(2,8-dimethyl-3,4-dihydro-1H-pyrido[4,3-b]indol-5(2H)-yl)-2-(pyridin-3-yl)propan-2-yl)oxy)acetic acid]
0% | 2% | 3 | – | – | – | – | – | Cc1ccc2c(c1)c1c(n2CC(C)(OCC(=O)O)c2cccnc2)CCN(C)C1 (single isomer, unassigned) [V-14b, 2-((1-(2,8-dimethyl-3,4-dihydro-1H-pyrido[4,3-b]indol-5(2H)-yl)-2-(pyridin-3-yl)propan-2-yl)oxy)acetic acid]
57% | – | 13 | – | – | – | 78 | – | Cc1ccc2c(c1)c1c(n2CC(OC(=O)CCC(=O)O)c2ccncc2)CCN2CCCC12 (single isomer, unassigned) [V-18a, 4-(2-(10-methyl-2,3,5,6-tetrahydro-1H-indolizino[7,8-b]indol-7(11cH)-yl)-1-(pyridin-4-yl)ethoxy)-4-oxobutanoic acid]
98% | 95% | 57 | – | – | – | – | – | Cc1ccc2c(c1)c1c(n2CC(OC(=O)CCC(=O)O)c2ccncc2)CCN2CCCC12 (single isomer, unassigned) [V-18b, 4-(2-(10-methyl-2,3,5,6-tetrahydro-1H-indolizino[7,8-b]indol-7(11cH)-yl)-1-(pyridin-4-yl)ethoxy)-4-oxobutanoic acid]
– | 68% | – | 98 | – | – | – | 62 | Cc1ccc2c(c1)c1c(n2CC(N=[N+]=[N-])c2ccc(F)cc2F)CCN(C)CC1 (single isomer, unassigned) [V-21a, 6-(2-azido-2-(2,4-difluorophenyl)ethyl)-3,9-dimethyl-1,2,3,4,5,6-hexahydroazepino[4,5-b]indole]
93% | 34% | 43 | – | – | – | – | – | Cc1ccc2c(c1)c1c(n2CC(N=[N+]=[N-])c2ccc(F)cc2F)CCN(C)CC1 (single isomer, unassigned) [V-21b, 6-(2-azido-2-(2,4-difluorophenyl)ethyl)-3,9-dimethyl-1,2,3,4,5,6-hexahydroazepino[4,5-b]indole]
